The record followed here is patent publication US10766888B1, “HMOX1 inducers” (Mitobridge Inc., priority 2019, dated 2020).

Usually inhibition stands for the drop in the measured response relative to a control, in per cent. As usually defined, the solubility is how much of the substance goes into solution per volume. The low end stands for a poorly soluble substance, the high end for a readily soluble substance.

Data set [1] in a line: PK study: plasma and brain levels in mice. The class given is in vivo. The following applies: male C57BL/6 mice, 50 mg/kg oral; for concentration at 0.5 h / concentration at 4 h: mouse; for concentration at 0.5 h: 0.5 hr post dosing; for concentration at 4 h: 4 hr post dosing. On the procedure: 9-10 week old male C57BL/6 mice were dosed orally with 50 mg/kg of the test compound formulated in 5% w/v tween 80 and 0.5% methyl cellulose. At 0.5 and 4 h post dosing, whole blood was collected, animals were sacrificed and brain tissues were collected. The blood samples were immediately placed on ice, and centrifuged within 60 min at 4° C. for 3 min at 14000 rpm to obtain plasma. Plasma was transferred by pipette to pre-labeled Eppendorf tubes, stored at −80° C. until analyzed.
Brain tissue samples were collected and rinsed with fresh ice cold 0.9% NaCl solution, dried quickly and thereafter frozen on dry ice/liquid nitrogen and stored at −70±10° C. until analyzed. Homogenization was done using phosphate buffer saline and used for analysis. Bioanalysis was performed using LC-MS/MS (API 4000).

Data set [2] has as its target hERG channel (Homo sapiens, UniProt Q12809). As to the kind of experiment: hERG manual patch clamp assay. The class given is cell-based. The conditions noted are these: HEK 293 cells stably expressing hERG channel, pH 7.35, 10 μM compound. The gist of the method:
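Whole-cell manual patch clamp on doxycycline-induced HEK293 cells stably expressing hERG. Tail current measured at −50 mV after a 4.8 s step to +30 mV from −90 mV holding; test compounds at 10 μM, 0.1% DMSO, vs vehicle baseline. Percent inhibition from peak tail current, […].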
On the technique in general: The hERG channel carries a current that helps repolarise heart muscle cells.

The nature of data set [3]: Kinetic solubility. The following applies: Dulbecco's phosphate buffer saline (DPBS), aqueous buffer, kinetic from dmso stock, DPBS pH 7.4, 25° C., 200 μM test compound. In kind it is physicochemical. The gist of the method:
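Compound from 10 mM DMSO stock diluted to 200 μM final in DPBS pH 7.4 and, separately, in DMSO, in duplicate. Shaken 16 h at 25 °C, then centrifuged 20 min at 25 °C. Supernatant analysed by HPLC.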

The mark [4] stands for this setting: brain, read-out: Brain (ng/g) 0.5 hr.
[5] abbreviates: plasma, read-out: Plasma (ng/ml) 0.5 hr.
[6] abbreviates: plasma, read-out: Plasma (ng/ml) 4 hr.

Values after ≈ are worked out from the molar mass of the structure shown. Where two headings read alike, the source gives them in different places.

Sequence of hERG channel (Q12809 whole entry): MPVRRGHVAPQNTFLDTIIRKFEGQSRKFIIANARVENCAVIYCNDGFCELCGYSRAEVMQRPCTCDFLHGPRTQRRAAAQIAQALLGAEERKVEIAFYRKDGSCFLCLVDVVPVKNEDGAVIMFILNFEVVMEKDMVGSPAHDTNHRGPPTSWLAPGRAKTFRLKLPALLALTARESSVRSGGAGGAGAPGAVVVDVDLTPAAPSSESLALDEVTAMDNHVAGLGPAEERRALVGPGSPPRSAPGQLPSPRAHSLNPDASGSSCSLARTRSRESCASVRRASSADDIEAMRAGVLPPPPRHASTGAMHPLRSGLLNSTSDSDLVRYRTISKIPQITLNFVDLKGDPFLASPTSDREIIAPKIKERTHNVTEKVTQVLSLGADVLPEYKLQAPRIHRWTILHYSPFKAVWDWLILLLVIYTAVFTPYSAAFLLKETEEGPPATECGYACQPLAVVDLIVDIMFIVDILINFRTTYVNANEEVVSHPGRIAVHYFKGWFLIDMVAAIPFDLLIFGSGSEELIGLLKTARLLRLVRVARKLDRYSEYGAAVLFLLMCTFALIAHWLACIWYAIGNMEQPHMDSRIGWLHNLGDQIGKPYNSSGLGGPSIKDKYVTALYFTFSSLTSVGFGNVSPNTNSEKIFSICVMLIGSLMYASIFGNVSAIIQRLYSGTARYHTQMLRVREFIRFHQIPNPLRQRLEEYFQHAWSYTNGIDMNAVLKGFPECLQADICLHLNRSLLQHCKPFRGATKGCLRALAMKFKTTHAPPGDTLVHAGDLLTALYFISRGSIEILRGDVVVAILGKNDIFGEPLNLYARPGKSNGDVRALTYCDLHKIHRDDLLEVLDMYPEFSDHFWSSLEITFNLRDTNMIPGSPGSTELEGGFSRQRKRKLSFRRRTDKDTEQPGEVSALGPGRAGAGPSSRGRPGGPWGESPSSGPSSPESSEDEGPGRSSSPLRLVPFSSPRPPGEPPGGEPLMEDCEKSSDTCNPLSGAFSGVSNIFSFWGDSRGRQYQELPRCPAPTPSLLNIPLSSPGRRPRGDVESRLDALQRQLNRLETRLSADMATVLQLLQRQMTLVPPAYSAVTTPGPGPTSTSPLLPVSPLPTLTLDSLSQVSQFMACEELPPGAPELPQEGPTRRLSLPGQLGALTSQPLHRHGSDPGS

`Cn1c(Nc2nc3ccccc3o2)nc2cc(C(=O)NCCOCCO)ccc21` [Example 17, 2-(benzo[d]oxazol-2-ylamino)-N-(2-(2-hydroxyethoxy)ethyl)-1-methyl-1H-benzo[d]imidazole-5-carboxamide]: the concentration at 0.5 h in data set [1] (setting [4]) stood at 188 ± 83 ng/g; in data set [1] (setting [5]), 4240 ± 771 ng/mL. The concentration at 4 h in data set [1] (setting [6]) was determined as 72 ± 38 ng/mL. The molecule further displayed an inhibition at 10 µM in data set [2] of 16%. Further, in data set [3], the solubility at 16 h came out at 11.6 µM (≈ 4.59 µg/mL).

Regarding `COCCNC(=O)c1ccc2c(c1)nc(Nc1nc3ccc(OCCOC)cc3o1)n2C` [Example 56, 2-((6-(2-methoxyethoxy)benzo[d]oxazol-2-yl)amino)-N-(2-methoxyethyl)-1-methyl-1H-benzo[d]imidazole-5-carboxamide], in data set [1], the “brain penetration (in words)” value is “good brain penetration”. The concentration at 0.5 h is 4230 ± 600 ng/g in data set [1] (setting [4]) and 4240 ± 428 ng/mL in data set [1] (setting [5]). Further, the concentration at 4 h in data set [1] (brain, read-out: Brain (ng/g) 4 hr) came out at 122 ± 153 ng/g; in data set [1] (setting [6]), 281 ± 318 ng/mL. Also, in data set [2], the inhibition at 10 µM is 35%. Besides, the solubility at 16 h in data set [3] worked out at 9.7 µM (≈ 4.26 µg/mL).
